Like-named read-outs stand apart in the source and are kept apart here.
Legend:
[1] = tested on: peritoneal pain caused by phenylbenzoquinone (PBQ); test: Peripheral analgesic activity (phenylbenzoquinone peritoneal pain); format: in vivo, mice; details: Mus musculus, 0.5 h, read-out: Peripheral analgesic activity ED50
Excerpt: E-Peripheral analgesic activity
A peritoneal pain is caused in mice by the intraperitoneal injection of phenylbenzoquinone (PBQ). The test tries to measure the decrease in the pain syndrome, characterized by an abdominal twisting movement, which is caused by injecting the test product thirty minutes before the administration of PBQ.

histamine [2] = test: Bronchospasm by inhalation of a histamine solution; format: in vivo, guinea-pigs; details: for ED50: Cavia porcellus, 0.5 h, read-out: Bronchospasm ED50
Description: F-Bronchospasm by inhalation of a histamine solution
Guinea-pigs are placed in a closed chamber into which histamine is introduced as an aerosol, and only those which show very distinct signs of asphyxia within four minutes are selected.
The substance to be studied is administered to groups of guinea-pigs thirty minutes before a further period in the chamber in order to check the resistance to histamine. A guinea-pig is considered to be protected if it resists the histamine aerosol for ten minutes without showing signs of asphyxia.
A 50% effective dose is calculated from the results obtained.

in vivo = details: mouse, ip
histamine [3] = test: animal or person; format: in vivo, guinea-pigs; details: Cavia porcellus, 0.5 h, read-out: Histaminic shock ED50
[4] = tested on: sleep induced by pentobarbital; test: animal or person; format: in vivo, mice; details: ip
mice [5] = test: Exploration behavior (hole-board); format: in vivo; details: Mus musculus, ip, 0.5 h, read-out: Exploration behavior ED50
Excerpt: Thirty minutes after the intraperitoneal administration of the derivatives according to the invention, each mouse is placed on an automated hole-board for five minutes and the number of holes explored is noted every minute.
(§1) A 50% effective dose can be calculated from the results obtained.

mice [6] = test: Muscle-relaxing action (traction test); format: in vivo; details: Mus musculus, ip, read-out: Muscle-relaxing action - Traction test ED50
Excerpt: C-Muscle-relaxing action (traction test)
This test assesses the presence or absence of redressments in a mouse brought up to a horizontal wire with its front paws.
The number of mice which are unable to grip the wire with one of their back paws within five seconds are noted.
as §1

mice [7] = test: Study of the spontaneous motility (motor activity), photoelectric actimeter; format: in vivo; details: mouse, at 25 mg.kg^-1 i.p.

| SMILES | ED50 ([1]; ip) [mg/kg] | ED50 (histamine [2]; ip) [mg/kg] | LD50 (in vivo) [mg/kg] | ED50 (histamine [3]; ip) [mg/kg] | ED50 (histamine [2]; po) [mg/kg] | ED50 (histamine [3]; po) [mg/kg] | also measured |
| --- | --- | --- | --- | --- | --- | --- | --- |
| CS(=O)(=O)O.CS(=O)(=O)O.O=C1c2ccccc2C(=O)N1CCN1CCN(CCOC(c2ccccc2)c2ccccc2)CC1 [Derivative 2, 1-[2-(Benzhydryloxy)ethyl]-4-[2-(phthalimido)-ethyl]piperazine dimethanesulfonate] | 3.12 | 3.67 | 211 | 2.03 | – | – | – |
| O=C1c2ccccc2C(=O)N1CCCCN1CCN(CCOC(c2ccccc2)c2ccccc2)CC1 [Derivative 19] | 1.56 | – | 133 | – | 5.34 | 2.2 | – |
| O=C1CCC(=O)N1CCN1CCN(CCOC(c2ccccc2)c2ccccc2)CC1 [Derivative 22] | – | 3.96 | 146 | 3.25 | – | – | ED50 ([1]; po): 35 mg/kg |
| O=c1n(CCN2CCN(CCOC(c3ccccc3)c3ccccc3)CC2)c2ccccc2n1Cc1ccccc1 [Derivative 32] | – | – | 400 | – | – | 2.3 | Bronchospasm (histamine [2]; guinea pig, in vivo, po): 33% |
| O=C(NCCN1CCN(CCOC(c2ccccc2)c2ccccc2)CC1)c1ccccc1[N+](=O)[O-] [Derivative 49] | – | – | 131 | – | 3.12 | – | ED50 ([1]; sc): 2.6 mg/kg; Interaction with pentobarbital ([4]; mouse, in vivo): no interaction |
| CC(C)(C)c1ccc(C(O)CCCN2CCC(C(O)(c3ccccc3)c3ccccc3)CC2)cc1 (stereo not shown) [Terfenadine, reference compound] | 3.1 | – | 100 | – | – | – | ED50 (mice [5]): 37 mg/kg; ED50 (mice [6]): 31 mg/kg; ED50 ([4]; Mus musculus, read-out: Interaction with pentobarbital ED50): 25 mg/kg; Motor activity (mice [7]): Significant decrease |
